Data set [1] in a line: logP determination by HPLC, reversed-phase column (C 18), acidic range. The class given is physicochemical. The settings on record: pH 2.3, 0.1% aqueous phosphoric acid/acetonitrile, 43° C. The protocol:
The logP values given in the Preparation Examples were determined in accordance with EEC Directive 79/831 Annex V.A8 by HPLC (High Performance Liquid Chromatography) using a reversed-phase column (C 18). Temperature: 43° C. Mobile phases for the determination in the acidic range: 0.1% aqueous phosphoric acid, acetonitrile; linear gradient from 10% acetonitrile to 90% acetonitrile. Calibration was carried out using unbranched alkan-2-ones (having 3 to 16 carbon atoms) with known logP values (determination of the logP values by the retention times using linear interpolation between two successive […]).

A further data set has as its system Puccinia recondita. Nature of the data set: Puccinia test (wheat)/protective. Format: in vivo. The following applies: 240 h, protective, application rate 500 g/ha, evaluation 10 days after inoculation, read-out: Efficacy in %. As for the experimental part: Puccinia Test (Wheat)/Protective • Solvent: 25 parts by weight of N,N-dimethylacetamide • Emulsifier: 0.6 part by weight of alkylaryl polyglycol ether To produce a suitable preparation of active compound, 1 part by weight of active compound is mixed with the stated amounts of solvent and emulsifier, and the concentrate is diluted with water to the desired concentration. To test for protective activity, young plants are inoculated with a spore suspension of Puccinia recondita in a 0.1% strength aqueous agar solution. After the spray coating has dried on, the plants are sprayed with the preparation of active compound at the stated application rate. The plants remain in an incubation cabin at 20° C. and 100% relative atmospheric humidity for 24 hours. The plants are then placed in a greenhouse at a temperature of about 20° C. and a relative atmospheric humidity of 80% to promote the development of rust pustules. Evaluation is carried out 10 days after the inoculation. 0% means an efficacy which corresponds to that of the control, whereas an efficacy of 100% means that no infection is observed.

In data set [2] the test system is Sphaerotheca fuliginea. Nature of the data set: Sphaerotheca test (cucumber)/protective. The settings on record: Podosphaera fuliginea, 168 h; comparative experiment; application rate 500 ppm; read-out: Example A Spaerotheca test (cucumber) protective efficacy in %. Format: in vivo. As for the experimental part: Sphaerotheca Test (Cucumber)/Protective
• Solvents: 24.5 parts by weight of acetone 24.5 parts by weight of dimethylacetamide • Emulsifier: 1 part by weight of alkylaryl polyglycol ether
(§1) To produce a suitable preparation of active compound, 1 part by weight of active compound is mixed with the stated amounts of solvent and emulsifier, and the concentrate is diluted with water to the desired concentration.
To test for protective activity, young plants are sprayed with the preparation of active compound at the stated application rate. After the spray coating has dried on, the plants are inoculated with an aqueous spore suspension of Sphaerotheca fuliginea. The plants are then placed in a greenhouse at about 23° C. and a relative atmospheric humidity of about 70%.
Evaluation is carried out 7 days after the inoculation. 0% means an efficacy which corresponds to that of the control, whereas an efficacy of 100% means that no infection is observed.
The compounds were tested in comparative experiments according to use examples A [Spaerotheca test (cucumber)/protective], D [Alternaria test (tomato)/protective] and E [Erysiphe test (barley)/protective].
In each case, the application rate was 500 ppm.

Another data set has as its system Alternaria solani. Briefly: Alternaria test (tomato)/protective. Format: in vivo. The following applies: 168 h, comparative experiment, application rate 500 ppm, read-out: Example D Alternaria test (tomato) protective efficacy in %. The protocol: Alternaria Test (Tomato)/Protective • Solvent: 49 parts by weight of N,N-dimethylformamide • Emulsifier: 1 part by weight of alkylaryl polyglycol ether To produce a suitable preparation of active compound, 1 part by weight of active compound is mixed with the stated amounts of solvent and emulsifier, and the concentrate is diluted with water to the desired concentration. To test for protective activity, young tomato plants are sprayed with the preparation of active compound at the stated application rate. 1 day after the treatment, the plants are inoculated with an aqueous spore suspension of Alternaria solani and then remain at 100% relative atmospheric humidity for 24 hours. The plants are then kept at about 96% relative atmospheric humidity and a temperature of 20° C. Evaluation is carried out 7 days after the inoculation. 0% means an efficacy which corresponds to that of the control, whereas an efficacy of 100% means that no infection is observed. The compounds were tested in comparative experiments according to use examples A [Spaerotheca test (cucumber)/protective], D [Alternaria test (tomato)/protective] and E [Erysiphe test (barley)/protective]. In each case, the application rate was 500 ppm.

The test system of data set [3] is Erysiphe graminis f. sp. hordei. Nature of the data set: Erysiphe test (barley)/protective. Format: in vivo. The following applies: Blumeria graminis, 168 h; comparative experiment; application rate 500 ppm; read-out: Example E Erysiphe test (barley) protective efficacy in %. The protocol:
Erysiphe Test (Barley)/Protective • Solvent: 49 parts by weight of N,N-dimethylformamide • Emulsifier: 1 part by weight of alkylaryl polyglycol ether To produce a suitable preparation of active compound, 1 part by weight of active compound is mixed with the stated amounts of solvent and emulsifier, and the concentrate is diluted with water to the desired concentration. To test for protective activity, young cereal plants are sprayed with the preparation of active compound at the stated application rate. 1 day after the treatment, the plants are inoculated with spores of Erysiphe graminis f. sp. hordei. The plants are then placed in a greenhouse at 70% relative atmospheric humidity and a temperature of 18° C. Evaluation is carried out 7 days after the inoculation. 0% means an efficacy which corresponds to that of the control, whereas an efficacy of 100% means that no infection is observed. The compounds were tested in comparative experiments according to use examples A [Spaerotheca test (cucumber)/protective], D [Alternaria test (tomato)/protective] and E [Erysiphe test (barley)/protective]. In each case, the application rate was 500 ppm.

Data set [4] relates to Sphaerotheca fuliginea. Nature of the data set: Sphaerotheca test (cucumber)/protective. The class given is in vivo. The settings on record: protective, application rate 100 g/ha, evaluation 7 days after inoculation.
Another data set relates to Venturia inaequalis. Nature of the data set: Venturia test (apple)/protective. Format: in vivo. The following applies: protective, application rate 100 g/ha, evaluation 10 days after inoculation. The protocol: Venturia Test (Apple)/Protective
• Solvents: 24.5 parts by weight of acetone 24.5 parts by weight of dimethylacetamide • Emulsifier: 1.0 part by weight of alkylaryl polyglycol ether
as §1
To test for protective activity, young plants are sprayed with the preparation of active compound at the stated application rate. After the spray coating has dried on, the plants are inoculated with an aqueous conidia suspension of the apple scab pathogen Venturia inaequalis and then remain in an incubation cabin at about 20° C. and 100% relative atmospheric humidity for 1 day.
The plants are then placed in a greenhouse at about 21° C. and a relative atmospheric humidity of about 90%.
Evaluation is carried out 10 days after the inoculation. 0% means an efficacy which corresponds to that of the control, whilst an efficacy of 100% means that no infection is observed.

Broadly, the chromatographic logP is a lipophilicity value derived from retention on a column. Low readings indicate lower lipophilicity, high ones higher lipophilicity. `CCC(C)(C)CC(C)c1ccccc1NC(=O)c1ccccc1C(F)(F)F` (stereo not shown) [Example 11, [2-(trifluoromethyl)phenyl]-N-[2-(1,3,3-trimethylpentyl)phenyl]carboxamide] returned a chromatographic logP in data set [1] of 4.68.
Regarding `CC(C)CC(C)c1ccccc1NC(=O)c1ccccc1C(F)(F)F` (stereo not shown) [drawing 20], the pest or weed control at 500 g/ha in the data set on Puccinia recondita is 100%.
`CC(C)CC(C)c1ccccc1NC(=O)c1ccccc1C(F)(F)F` (stereo not shown) [Example 2, N-[2-(1,3-dimethylbutyl)phenyl]-2-(trifluoromethyl)benzamide] gave a chromatographic logP in data set [1] of 4.09. Also, the pest or weed control at 500 ppm with Sphaerotheca fuliginea [2] is 100%; in the data set with Alternaria solani, 95%; in data set [3] it was 90%.
With `CCCCc1ccccc1NC(=O)c1ccccc1C(F)(F)F` [No. 6.3(p. 24)], the pest or weed control at 500 ppm with Sphaerotheca fuliginea [2] worked out at 10%; with Alternaria solani it was 0%; in data set [3], 10%.
As to `CCCCCCc1ccccc1NC(=O)c1ccccc1C(F)(F)F` [No. 6.9(p. 24)], the pest or weed control at 500 ppm (in the data set with Sphaerotheca fuliginea [2]; in the data set with Alternaria solani; in data set [3]) was 0% in each case.
Turning to `CCC(C)c1ccccc1NC(=O)c1ccccc1C(F)(F)F` (stereo not shown) [No. 6.4(p. 24)], the pest or weed control at 500 ppm in the data set on Sphaerotheca fuliginea [2] was determined as 30%; in the data set on Alternaria solani it was 30%; in data set [3], 0%.
`CC(CC(C)(C)C)c1ccccc1NC(=O)c1ccccc1C(F)(F)F` (stereo not shown) [Example 6, 2-(trifluoromethyl)-N-[2-(1,3,3-trimethylbutyl)phenyl]benzamide] had a chromatographic logP in data set [1] of 4.36.
Take `CC(C)CC(C)c1ccccc1NC(=O)c1ccccc1Cl` (stereo not shown) [drawing 23]: the pest or weed control at 500 g/ha with Puccinia recondita is 100%.
For the molecule `CC(C)CC(C)c1ccccc1NC(=O)c1ccccc1Cl` (stereo not shown) [Example 4, N-[2-(1,3-dimethylbutyl)phenyl]-2-chlorobenzamide], in data set [1], the chromatographic logP was 3.98.
Same read-out and setting: to `CC(CC(C)(C)C)c1ccccc1NC(=O)c1ccccc1I` (stereo not shown) [Example 9, 2-iodo-N-[2-(1,3,3-trimethylbutyl)phenyl]benzamide] belongs 4.4.
On to `CCC(C)c1ccccc1NC(=O)c1ccccc1I` (stereo not shown) [No.14.4(p. 42)], for which the pest or weed control at 500 ppm in the data set on Sphaerotheca fuliginea [2] turned out to be 10%; in the data set with Alternaria solani, 10%; in data set [3], 20%.
Molecule `CCC(C)(C)CC(C)c1ccccc1NC(=O)c1ccccc1Cl` (stereo not shown) [Example 12, (2-chlorophenyl)-N-[2-(1,3,3-trimethylpentyl)phenyl]carboxamide] showed a chromatographic logP in data set [1] of 4.6.
In the case of `CC(C)CC(C)c1ccccc1NC(=O)c1ccccc1C(F)(F)F` (stereo not shown) [drawing 10], the Efficacy in % in the data set with Sphaerotheca fuliginea [4] turned out to be 100%.
In the case of `CCC(C)(C)CC(C)c1ccccc1NC(=O)c1ccccc1I` (stereo not shown) [Example 10, (2-iodophenyl)-N-[2-(1,3,3-trimethylpentyl)phenyl]carboxamide], the chromatographic logP in data set [1] worked out at 4.71.
`CCC(C)(C)CC(C)c1ccccc1NC(=O)c1ccccc1Br` (stereo not shown) [Example 13, (2-bromophenyl)-N-[2-(1,3,3-trimethylpentyl)phenyl]carboxamide] gave a chromatographic logP in data set [1] of 4.63. The chromatographic logP values of the last two molecules are within 0.2 log units of each other.
`CC(C)CC(C)c1ccccc1NC(=O)c1ccccc1I` (stereo not shown) [Example 3, N-[2-(1,3-dimethylbutyl)phenyl]-2-iodobenzamide] showed a chromatographic logP in data set [1] of 4.12. For the same molecule, the values for the pest or weed control at 500 ppm (with Sphaerotheca fuliginea [2]; in the data set with Alternaria solani; in data set [3]) were 100%, 95% and 95%, respectively.
In the case of `CC(CC(C)(C)C)c1ccccc1NC(=O)c1ccccc1Cl` (stereo not shown) [drawing 25], the pest or weed control at 500 g/ha with Puccinia recondita came to 100%.
Turning to `CCCCCCc1ccccc1NC(=O)c1ccccc1I` [No.14.9(p. 42)], the pest or weed control at 500 ppm (with Sphaerotheca fuliginea [2]; in the data set on Alternaria solani; in data set [3]) was 0% throughout.
In turn, `CC(CC(C)(C)C)c1ccccc1NC(=O)c1ccccc1Cl` (stereo not shown) [Example 7, 2-chloro-N-[2-(1,3,3-trimethylbutyl)phenyl]benzamide] displayed a chromatographic logP in data set [1] of 4.25.
`CC(C)CC(C)c1ccccc1NC(=O)c1ccccc1I` (stereo not shown) [drawing 21]: in the data set on Puccinia recondita, the pest or weed control at 500 g/ha was 100%.
Same read-out and setting: to `CCC(C)(C)CC(C)c1ccccc1NC(=O)c1ccccc1C(F)(F)F` (stereo not shown) [drawing 26] belongs 100%.
Molecule `CC(C)CC(C)c1ccccc1NC(=O)c1ccccc1C(F)(F)F` (stereo not shown) [drawing 12] came in with an Efficacy in % with Venturia inaequalis of 100%.
As for `CC(C)CC(C)c1ccccc1NC(=O)c1ccccc1Br` (stereo not shown) [drawing 22], in the data set on Puccinia recondita, the pest or weed control at 500 g/ha is 100%.
Same read-out and setting: as for `CC(CC(C)(C)C)c1ccccc1NC(=O)c1ccccc1I` (stereo not shown) [drawing 28], the figure is 100%.
For `CCCCc1ccccc1NC(=O)c1ccccc1I` [No.14.3(p. 42)], the pest or weed control at 500 ppm (in the data set with Sphaerotheca fuliginea [2]; in the data set on Alternaria solani; in data set [3]) was 0% in each case.
Regarding `CC(CC(C)(C)C)c1ccccc1NC(=O)c1ccccc1Br` (stereo not shown) [drawing 24], the pest or weed control at 500 g/ha with Puccinia recondita worked out at 100%.
As for `CC(C)CC(C)c1ccccc1NC(=O)c1ccccc1I` (stereo not shown) [drawing 11], the Efficacy in % in the data set on Sphaerotheca fuliginea [4] turned out to be 100%.
In data set [1], `CC(C)CC(C)c1ccccc1NC(=O)c1ccccc1Br` (stereo not shown) [Example 5, N-[2-(1,3-dimethylbutyl)phenyl]-2-bromobenzamide] registered a chromatographic logP of 4.01. Also, the results for the pest or weed control at 500 ppm (in the data set with Sphaerotheca fuliginea [2]; in the data set on Alternaria solani; in data set [3]) were 95%, 90% and 30%, respectively.
For `CC(CC(C)(C)C)c1ccccc1NC(=O)c1ccccc1C(F)(F)F` (stereo not shown) [drawing 27], the pest or weed control at 500 g/ha in the data set on Puccinia recondita came out at 100%.
`CC(C)CC(C)c1ccccc1NC(=O)c1ccccc1I` (stereo not shown) [drawing 13]: in the data set with Venturia inaequalis, the Efficacy in % is on record as 100%.
The molecule `CC(CC(C)(C)C)c1ccccc1NC(=O)c1ccccc1Br` (stereo not shown) [Example 8, 2-bromo-N-[2-(1,3,3-trimethylbutyl)phenyl]benzamide] registered a chromatographic logP in data set [1] of 4.29.

Source of the values: patent US7314958B2, “Phenylbenzamides” (Bayer CropScience AG, priority 2002, dated 2008).
